In patent US10301304B2, “Selective inhibitor of phosphatidylinositol 3-kinase-gamma” (VERTEX PHARMACEUTICALS INCORPORATED, priority 2013, dated 2019):

What was measured:
[1] = Oral pharmacokinetics / bioavailability; type: in vivo, Rat; conditions: rat, in vivo, Oral gavage, 3 mg/kg nominal dose, vehicle 0.2%MC/1%SLS; for AUC: read-out: Rat PO AUC; for Cmax: read-out: Rat PO Cmax
Excerpt: The bioavailability in monkey (greater than 100%) may be explained by the tenfold difference between the IV and oral doses. Compound 1 was rapidly absorbed in all species, with maximum systemic concentration observed within approximately one to three hours of dosing.

[2] = Intravenous bolus pharmacokinetics; type: in vivo, Rat; conditions: rat, plasma, Intravenous bolus, 0.5 mg/kg nominal dose; for AUC: iv, 0.5 mg/kg, read-out: Rat IV AUC; for clearance: read-out: Rat IV CL
Excerpt: Following intravenous administration of a single bolus dose, Compound 1 had low systemic clearance and a long half-life in all species tested. […] The volume of distribution was greater than the total body water, indicating distribution of Compound 1 to tissues.

[3] = test system: collagen-induced arthritis (CIA); test: therapeutic mouse collagen-induced arthritis (CIA) model; type: in vivo; set-up: Histopathology Summed Score, Knees / Therapeutic Paw Score AUC / Histopathology Summed Score, Six Joints / Histopathology Summed Score, Paws: scale not given here; conditions: Fostamatinib 30 mg/kg BID
Procedure: Compound 1 was tested in the therapeutic mouse collagen-induced arthritis (CIA) model at 2.5 mg/kg BID (5 mg/kg/day), 5 mg/kg BID (10 mg/kg/day) or 10 mg/kg BID (20 mg/kg/day). Fostamatinib, a Syk small molecule inhibitor used as a reference standard, was dosed orally at 30 mg/kg BID (60 mg/kg/day). Compounds were dosed for 10 days in a 12/12-hour BID dosing regimen until the end of the study. Compound 1 was formulated in 0.2% MC, 1% SLS. Dosing volume was 10 mL/kg. Terminal plasma samples were collected at 2, 4 and 12 hours post last dose. All four paws and both knees were collected and processed for histopathology.

CYP1A2 = CYP1A2 Induction in Human Hepatocytes; type: in vitro ADME; conditions: 50 μM Omeprazole
Procedure: CYP activity was determined by monitoring metabolite formation of specific CYP probe substrates (phenacetin for CYP1A2 and testosterone for CYP3A4) using LC-MS/MS. CYP messenger ribonucleic acid (mRNA) was analyzed by RT-PCR to confirm CYP induction potential.

With `CCOc1cncc(-c2cc(C)c3c(n2)C(C)(C)N(c2cnn(CC(F)F)c2)C3=O)c1` [B, reference compound] as the compound, how does the AUC [1] read?
The AUC was 600 ng·h/mL.

What about the Cmax [1] of the same compound?
Its Cmax is 120 ng/mL.

And the AUC [2]?
Its AUC is 330 ng·h/mL.

And the clearance [2]?
The clearance was 22 mL/min/kg.

Which “clinical arthritis scores, therapeutic paws (FIG. 2), significantly reduced” value [3] does the source give for `COc1cc(Nc2ncc(F)c(Nc3ccc4c(n3)N(COP(=O)(O)O)C(=O)C(C)(C)O4)n2)cc(OC)c1OC` [Fostamatinib, reference compound] here?
The value was “not”.

And the “reduction of arthritis scores AUC, prophylactic paws only” value [3]?
Its value is 32%.

And the “reduction of clinical arthritis scores AUC vs vehicle, all paws” value [3]?
The value was 25%.

What about the “All Paw Score AUC” value ([3]; 10 days) of the same compound?
Its value is “*23.61”.

What about the “Histopathology Summed Score, Knees” value ([3]; 10 days) of the same compound?
The value was 8.90.

What about the “Histopathology Summed Score, Paws” value ([3]; 10 days) of the same compound?
Its value is 10.25.

And the “Histopathology Summed Score, Six Joints” value ([3]; 10 days)?
Its value is 9.80.

What about the “Prophylactic Paw Score AUC” value ([3]; 10 days) of the same compound?
Its value is “*48.30”.

What about the “Therapeutic Paw Score AUC” value ([3]; 10 days) of the same compound?
Its value is 46.15.

What about the “Arthritis scores measured daily, all paws (FIG. 1)” value ([3]; *d2-11, vs vehicle) of the same compound?
The value was “significantly reduced toward normal”.

What about the “clinical arthritis scores, prophylactic paws (FIG. 3)” value ([3]; *d5-9) of the same compound?
Its value is “significantly reduced”.

With `Cc1cc(-c2cncc(OCC(F)F)c2)nc2c1C(=O)N(c1cnn(CC(F)F)c1)C2(C)C` [C, reference compound] as the compound, how does the AUC [1] read?
Its AUC is 3000 ng·h/mL.

What about the Cmax [1] of the same compound?
The Cmax was 200 ng/mL.

What about the AUC [2] of the same compound?
The AUC was 590 ng·h/mL.

What about the clearance [2] of the same compound?
Its clearance is 11 mL/min/kg.

With `Cc1cc(-c2cncc(OCC(F)(F)F)c2)nc2c1C(=O)N(c1cnn(CC(F)F)c1)C2(C)C` [D, reference compound] as the compound, how does the AUC [1] read?
The AUC was 9000 ng·h/mL.

What about the Cmax [1] of the same compound?
Its Cmax is 500 ng/mL.

What about the AUC [2] of the same compound?
Its AUC is 1200 ng·h/mL.

What about the clearance [2] of the same compound?
Its clearance is 7 mL/min/kg.

What does the source list for `COc1cncc(-c2cc(C)c3c(n2)C(C)(C)N(c2cnn(CC(F)F)c2)C3=O)c1` [Compound A, reference compound]?
AUC [1]: 300 ng·h/mL; Cmax [1]: 60 ng/mL; AUC [2]: 220 ng·h/mL; clearance [2]: 22 mL/min/kg

With `COc1ccc2[nH]c([S+]([O-])Cc3ncc(C)c(OC)c3C)nc2c1` (stereo not drawn) [Omeprazole, reference compound] as the compound, how does the “CYP1A2 mRNA message” value (CYP1A2; lot 8123) read?
The value was 118.0 fold change.

What about the “Phenacetin O-Dealkylation” value (CYP1A2; lot 8123) of the same compound?
Its value is 25.7 fold change.

What about the “CYP1A2 mRNA message” value (CYP1A2; lot LMP) of the same compound?
Its value is 71.5 fold change.

What about the “Phenacetin O-Dealkylation” value (CYP1A2; lot LMP) of the same compound?
The value was 36.3 fold change.

And the “CYP1A2 mRNA message” value (CYP1A2; lot YOW)?
The value was 83.6 fold change.

What about the “Phenacetin O-Dealkylation” value (CYP1A2; lot YOW) of the same compound?
The value was 17.9 fold change.
